Measured values reported in the NIST ThermoML archive (doi:10.1016/j.fluid.2014.09.014).
± gives the expanded uncertainty stated by the source.

Assay: refractive index (other wavelength) (dimensionless); xn = mol fraction of the nth substance listed
Details: 298.15 K, 101 kPa, Liquid, Standard Abbe refractometry

CC(C)OC(C)C [diisopropyl ether] + CO
refractive index
Details | Wavelength=435.8 nm | Wavelength=486.1 nm | Wavelength=546.1 nm | Wavelength=587.6 nm
x2 = 0 | – | 1.36965 ± 0.00043 | 1.36683 ± 0.00043 | 1.36535 ± 0.00043
x2 = 0.0423 | – | 1.36963 ± 0.00042 | 1.36681 ± 0.00042 | 1.36534 ± 0.00042
x2 = 0.0424 | 1.37303 ± 0.00043 | 1.36961 ± 0.00043 | 1.36679 ± 0.00043 | 1.36531 ± 0.00043
x2 = 0.082 | 1.373 ± 0.00042 | 1.36958 ± 0.00042 | 1.36677 ± 0.00042 | 1.36528 ± 0.00042
x2 = 0.0822 | 1.373 ± 0.00042 | 1.36957 ± 0.00042 | 1.36678 ± 0.00042 | 1.3653 ± 0.00042
x2 = 0.1171 | 1.37283 ± 0.00041 | 1.36942 ± 0.00041 | 1.36661 ± 0.00041 | 1.36514 ± 0.00041
x2 = 0.1271 | 1.37286 ± 0.00041 | 1.36944 ± 0.00041 | 1.36664 ± 0.00041 | 1.36515 ± 0.00041
x2 = 0.1827 | 1.37246 ± 0.0004 | 1.36905 ± 0.0004 | 1.36626 ± 0.0004 | 1.36478 ± 0.0004
x2 = 0.2162 | 1.37305 ± 0.0004 | 1.36963 ± 0.0004 | 1.36681 ± 0.0004 | 1.36534 ± 0.0004
x2 = 0.251 | 1.37234 ± 0.00039 | 1.36895 ± 0.00039 | 1.36616 ± 0.00039 | 1.3647 ± 0.00039
x2 = 0.3298 | 1.37153 ± 0.00038 | 1.36815 ± 0.00038 | 1.36537 ± 0.00038 | 1.36391 ± 0.00038
x2 = 0.3577 | 1.37006 ± 0.00037 | 1.36672 ± 0.00037 | 1.36396 ± 0.00037 | 1.36251 ± 0.00037
x2 = 0.4497 | 1.36914 ± 0.00037 | 1.36584 ± 0.00037 | 1.36306 ± 0.00037 | 1.36163 ± 0.00037
x2 = 0.4525 | 1.36969 ± 0.00037 | 1.36637 ± 0.00037 | 1.3636 ± 0.00037 | –
x2 = 0.522 | 1.36737 ± 0.00035 | 1.36409 ± 0.00035 | 1.36134 ± 0.00035 | –
x2 = 0.5543 | 1.36692 ± 0.00035 | 1.36368 ± 0.00035 | 1.36093 ± 0.00035 | –
x2 = 0.609 | 1.36396 ± 0.00034 | – | 1.35803 ± 0.00035 | –
x2 = 0.6529 | 1.36244 ± 0.00034 | 1.35923 ± 0.00034 | 1.35655 ± 0.00034 | –
x2 = 0.7504 | 1.35846 ± 0.00033 | 1.35533 ± 0.00033 | 1.3527 ± 0.00033 | –
x2 = 0.804 | 1.35412 ± 0.00033 | 1.35108 ± 0.00033 | 1.34846 ± 0.00033 | –
x2 = 0.807 | 1.35401 ± 0.00033 | 1.35096 ± 0.00033 | 1.34834 ± 0.00033 | –
x2 = 0.8727 | 1.34872 ± 0.00032 | 1.34572 ± 0.00032 | 1.34316 ± 0.00032 | –
x2 = 0.9233 | 1.34165 ± 0.00033 | 1.33873 ± 0.00033 | 1.33624 ± 0.00033 | –
x2 = 0.9253 | 1.34355 ± 0.00033 | 1.3406 ± 0.00033 | 1.33811 ± 0.00033 | –
x2 = 0.9527 | 1.34033 ± 0.00032 | 1.3374 ± 0.00032 | 1.33494 ± 0.00032 | –
x2 = 0.9773 | 1.3368 ± 0.00032 | 1.3339 ± 0.00032 | 1.33146 ± 0.00032 | –
x2 = 0.989 | 1.3356 ± 0.00032 | 1.3327 ± 0.00032 | 1.33028 ± 0.00032 | –
x2 = 0.9964 | 1.3342 ± 0.00032 | 1.33128 ± 0.00032 | 1.32888 ± 0.00032 | –
